The values that follow come from US6951866B2, “Bicyclic pyrimidine compounds and therapeutic use thereof” (Sumitomo Pharmaceuticals Company, Limited, priority 1998, dated 2005).

Common to all, as to assay type: cell-based
In one test the test system is IL-4. Put plainly: Cytokine production (IL-4) from KLH-stimulated mouse lymph node cells, ELISA. The following applies: 4 days; for IC50: Mus musculus, 96 h, lymph node cells of KLH-sensitized BALB/c mice, KLH 0.1 mg/ml, read-out: IL-4 inhibition activity IC50; for production of IL-4: Test 3, KLH-stimulated mouse lymph node cells. How it is done:
(§1) Activity on Cytokines Production from Mouse Lymph Node Cells by Compounds of Working Examples
(§2) BALB/c mice were purchased from Japan Charlse River (Yokohama) and 8 weeks female mice were used.
(§3) D-MEM (High Glucose) medium (Nikken Biomedical Research Lab. (Kyoto), Code No. CM4402) supplemented with 20% heat-inactivated (56° C., 30 min.) fetal bovine serum (Characterized, Code No. A-1115-L, HyClone Lab., Logan, Utah), 50 μM 2-mercaptoethanol (Sigma, St. Louis, Mo., Code No. M-6250), 100 unit/ml penicillin and 100 μg/ml streptomycin (Penicillin-Streptomycin, Bibco-BRL, Code No. 15140-122) were used for the assay.
Each test compound dissolved in DMSO (Nacalai Tesque (Kyoto) code No. 11J) at a concentration of 100 mM was diluted to final concentration with the medium.
KLH (0.2 mg) was subcutaneously administered to mouse foot with Freund's complete adjuvant (Difco Lab., Detroit, Mich., Code No. 3113-60-5). Eight days later popliteal lymph node was picked up and its cell suspension was prepared.
(§4) KLH (0.1 mg/ml) and the test compound were added to lymph node cells (2.5×10^6 cells/ml) and the mixture was incubated at 37° C. under 5% CO2 for 4 days (Corning 25850, 0.15 ml/well). Then, amount of cytokine produced in the supernatant was measured by ELISA specific to cytokine.
(§5) Amounts of interleukin 4 (IL-4) and interleukin 5 (IL-5) as a typical Th2 type cytokine, and amount of interferon γ (IFN-γ) as a typical Th1 type cytokine were measured.
Amount of IL-4 was measured by ELISA as mentioned below. A rat anti-mouse IL-4 antibody (Pharmingen, San Diego, Calif., Code No. 18031D, 0.5 mg/ml) as a primary antibody was diluted 250 times with hydrogen carbonate buffer, and it was inoculated to the 96-well plate (Falcon 3912, Becton Dickinson and Company, Flanklin Lakes, N.J.) (50μ/well) and each well was coated at 4° C. overnight. Then the plate was blocked with PBS (−) solution (phosphate-buffered saline without calcium chloride and magnesium chloride) containing 3% BSA (200 μl/well). After rinsing the plate three times with PBS (−) solution containing 0.05% polyoxyethylene solbitan monolaurate (Tween 20™, Nacalai Tesque (Kyoto) Code No. 281-51) (PBST), the supernatant of the culture medium was added to the wells (50 μl/well) and incubated at room temperature for 4 hours. Recombinant mouse IL-4 (Pharmingen, Code No. 19231W) was used for preparing a calibration curve.
After rinsing the plate three times with PBST, a rat anti-mouse IL-4 antibody labeled by biotin (Pharmingen, Code No. 18042D, 0.5 mg/ml) as a secondary antibody, which was diluted 500 times with PBS (−) solution containing 0.1% BSA, was poured into wells (100 μl/well). The plate was incubated at room temperature for one hour. The secondary antibody bound to the plate was detected with streptoabidin alkaliphosphatase (Kirkegaad & Perry Lab., Gaithersburg, Md., Code No. 15-30-00) (0.25 μg/ml, 100 μl/well). After incubation of the plate at 37° C. for one hour and rinsing the plate three times with PBST, the coloring was done by adding PNPP substrate (p-nitrophenyl disodium phosphate substrate (Nacalai Tesque) (1 mg/ml, 100 μl/well)). The absorption at 415 nm was measured by a microplate reader (MTP-120 Microplate reader, Corona Electric Co.)
In the same manner as in Test 1, each test compound dissolved in DMSO (Nacalai Tesque (Kyoto) code No. 11J) at a concentration of 100 mM was diluted to final concentration with the medium. Sensitization and preparation of lymph node cells, production of cytokine by stimulation with an antigen and measurement of amounts of cytokines were conducted in the same method as in Test 1.
By measuring inhibition rate of production of IL-4 at various concentrations of each test compound and using a graph relating to the compound concentration and the inhibition rate, 50% inhibition concentration (IC50) on each test compound was calculated.

For another test, the system named is IFN-γ. Kind of test: Cytokine production (IFN-γ) from KLH-stimulated mouse lymph node cells, ELISA. The following applies: Test 3, 4 days. How it is done: as §1, §2, §3
(§6) Each test compound dissolved in DMSO (Nacalai Tesque (Kyoto) code No. 11J) at a concentration of 100 mM was diluted to final concentration with the medium. […]
as §4, §5
(§7) Amount of IL-4 was measured by ELISA as mentioned below. […]

A further test concerns IL-5. Kind of test: Cytokine production (IL-5) from KLH-stimulated mouse lymph node cells, ELISA. Conditions: Test 3, 4 days. How it is done: as §1, §2, §3, §6, §4, §5, §7
For orientation: In an ELISA, binding on a coated surface is turned into a signal by an enzyme label.

Where two headings read alike, the source gives them in different places.

The IC50 is the concentration that gives 50% inhibition. In the case of `CCCCCNc1nc(N)nc(C)c1CC` [Example 24, N-[2-Amino-5-ethyl-6-methylpyrimidine-4-yl)-N-pentylamine], in the test on IL-4 (Test 2, Table 1), the 50% inhibitory concentration (IC50) was found to be 0.2 µg/mL. Same read-out and setting: as for `CCCCCNc1nc(N)nc(C)c1C` [Example 18, N-(2-Amino-5,6-dimethylpyrimidine-4-yl)-N-pentylamine], the figure is 0.3 µg/mL; as for `CCCCC(Nc1nc(N)nc2c1CCCC2)C(N)=O` (stereo not drawn) [Example 21], 0.5 µg/mL.

For `CCCCCNc1nc(N)nc(C)c1CCC#N` [Example 23, 3-[2-Amino-4-methyl-6-(pentylamino)pyrimidine-5-yl]propanenitrile], the IC50 with IL-4 (Test 2, Table 1) turned out to be 0.5 µg/mL. Still for that read-out and setting: as for `CCCCC(Nc1nc(N)nc2c1CCCC2)C(=O)OC` (stereo not drawn) [Example 9, Methyl 2-[(2-amino-5,6,7,8-tetrahydroquinazoline-4-yl)amino)hexanoate], the figure is 1 µg/mL; as for `CCOC(=O)C(CO)Nc1nc(N)nc2c1CCCC2` (stereo not drawn) [Example 8, Ethyl 2-[(2-amino-5,6,7,8-tetrahydroquinazoline-4-yl)amino]-3-hydroxypropanoate], 1 µg/mL; as for `CCCCCCc1c(C)nc(N)nc1NCCCCC` [Example 15, N-(2-Amino-5-hexyl-6-methylpyrimidine-4-yl)-N-pentylamine], 0.4 µg/mL. Still for that read-out and setting: as for `CCCCCNc1nc(N)nc2c1COCC2` [Example 16, N-(2-Amino-7,8-dihydro-5H-pyrano[4,3-d]pyrimidine-4-yl)-N-pentylamine], the figure is 3 µg/mL; as for `CCCCc1c(C)nc(N)nc1NCC(O)CCC` (stereo not drawn) [Example 25, 1-[(2-Amino-5-butyl-6-methylpyrimidine-4-yl)amino]pentane-2-ol], 0.1 µg/mL. `CCCCCNc1nc(N)ncc1Cc1ccccc1` [Example 27, N-(2-Amino-5-benzylpyrimidine-4-yl)-N-pentylamine]: the “production of IFN-γ” value in the test on IFN-γ was “enhance the production”. Besides, the “production of IL-5” value with IL-5 is recorded as “inhibit the production”. In addition, the IC50 with IL-4 (Test 4, Table 2) came to 1 µg/mL. Also, the “production of IL-4” value in the test on IL-4 is reported as “inhibit the production”. `Nc1nc2c(c(NCC3CCCCC3)n1)CCCC2` [Example 2, N-(2-Amino-5,6,7,8-tetrahydroquinazoline-4-yl)-N-(cyclohexylmethyl)amine]: the IC50 in the test with IL-4 (Test 2, Table 1) amounted to 0.6 µg/mL.

`CCCCCNc1nc(N)nc(C)c1CCCC` [Example 14, N-(2-Amino-5-butyl-6-methylpyrimidine-4-yl)-N-pentylamine]: the IC50 in the test with IL-4 (Test 2, Table 1) stood at 0.1 µg/mL. Still for that read-out and setting: as for `CCCCCNc1nc(N)nc(CCCC)c1C` [Example 17, N-(2-Amino-6-butyl-5-methylpyrimidine-4-yl)-N-pentylamine], the figure is 5 µg/mL; as for `CCCCCNc1nc(N)nc(C)c1CCOC` [Example 22, N-(2-Amino-5-(2-methoxyethyl)-6-methylpyrimidine-4-yl)-N-pentylamine], 0.5 µg/mL; as for `CCOC(=O)C(CC(C)C)Nc1nc(N)nc2c1CCCC2` (stereo not drawn) [Example 3, Ethyl-2-[(2-amino-5,6,7,8-tetrahydroquinazoline-4-yl)amino]-4-methylpentanoate], 0.5 µg/mL. Turning to `CCCC(=O)CNc1nc(N)nc2c1CCCC2` [Example 12, 1-[(2-Amino-5,6,7,8-tetrahydroquinazoline-4-yl)amino]pentane-2-one], the IC50 in the test with IL-4 (Test 2, Table 1) stood at 1 µg/mL. `CCCCCNc1nc(N)nc2c1CCC2` [Example 20, N-(2-Amino-6,7-dihydro-5H-cyclopenta[d]pyrimidine-4-yl)-N-pentylamine]: the IC50 in the test with IL-4 (Test 2, Table 1) came to 0.3 µg/mL. For `Nc1nc2c(c(NCC3CCCO3)n1)CCCC2` (stereo not drawn) [Example 13, N-(2-Amino-5,6,7,8-tetrahydroquinazoline-4-yl)-N-(tetrahydorofuran-2-ylmethyl)amine], the IC50 with IL-4 (Test 2, Table 1) came out at 10 µg/mL. Take `CCCCCCNc1nc(N)nc2c1CCCC2` [Example 6, N-(2-Amino-5,6,7,8-tetrahydroquinazoline-4-yl)-N-hexylamine]: the IC50 in the test on IL-4 (Test 2, Table 1) came to 1 µg/mL. As to `CCCCNc1nc(N)nc2c1CCCC2` [Example 5, N-(2-Amino-5,6,7,8-tetrahydroquinazoline-4-yl)-N-butylamine], the IC50 with IL-4 (Test 2, Table 1) came to 0.2 µg/mL. With `CCCCCNc1nc(N)nc2c1CCCC2` [Example 19, N-(2-Amino-5,6,7,8-tetrahydroquinazoline-4-yl)-N-pentylamine], the IC50 in the test with IL-4 (Test 2, Table 1) was found to be 0.2 µg/mL. The same measure, in the same setting: the value for `CCCCC(CO)Nc1nc(N)nc2c1CCCC2` (stereo not drawn) [Example 10, 2-[(2-Amino-5,6,7,8-tetrahydroquinazoline-4-yl)amino]hexane-1-ol] was 0.1 µg/mL; that for `CCOC(=O)CNc1nc(N)nc2c1CCCC2` [Example 1, Ethyl-2-[(2-amino-5,6,7,8-tetrahydroquinazoline-4-yl)amino]acetate] was 0.6 µg/mL. In the case of `CCOC(=O)C(C)Nc1nc(N)nc2c1CCCC2` (stereo not drawn) [Example 7, Ethyl 2-[(2-amino-5,6,7,8-tetrahydroquinazoline-4-yl)amino]propanoate], in the test on IL-4 (Test 2, Table 1), the IC50 came to 0.5 µg/mL.

Consider `CCOCCNc1nc(N)nc2c1CCCC2` [Example 4, N-(2-Amino-5,6,7,8-tetrahydroquinazoline-4-yl)-N-(2-ethoxyethyl)amine], for which the IC50 in the test on IL-4 (Test 2, Table 1) came to 3 µg/mL.

With `CCCCCNc1nc(N)nc(C)c1Cc1ccccc1` [Example 26, N-(2-Amino-5-benzyl-6-methylpyrimidine-4-yl)-N-pentylamine], the “production of IFN-γ” value in the test with IFN-γ is on record as “enhance the production”. The “production of IL-5” value in the test with IL-5 was “inhibit the production”. For the same molecule, the IC50 with IL-4 (Test 4, Table 2) came out at 0.5 µg/mL. For the same molecule, the “production of IL-4” value with IL-4 was “inhibit the production”. With `CCCC(O)CNc1nc(N)nc2c1CCCC2` (stereo not drawn) [Example 11, 1-[(2-Amino-5,6,7,8-tetrahydroquinazoline-4-yl)amino]pentane-2-ol], in the test on IL-4 (Test 2, Table 1), the IC50 was determined as 0.1 µg/mL.
